# Laboratory results reported in publication PMC9487510, “A Novel Oral GyrB/ParE Dual Binding Inhibitor Effective against Multidrug-Resistant Neisseria gonorrhoeae and Other High-Threat Pathogens” (Antimicrobial Agents and Chemotherapy, 2022).
# Where two headings read alike, the source gives them in different places.
# System: N. gonorrhoeae clinical isolates
# Test: MIC, agar dilution (CLSI)
# Assay type: cell-based, Neisseria gonorrhoeae
# Settings: Neisseria gonorrhoeae
structure (smiles),measurement,setting,value
"CC[C@H]1OC(=O)[C@H](C)[C@@H](O[C@H]2C[C@@](C)(OC)[C@@H](O)[C@H](C)O2)[C@H](C)[C@@H](O[C@@H]2O[C@H](C)C[C@H](N(C)C)[C@H]2O)[C@](C)(O)C[C@@H](C)CN(C)[C@H](C)[C@@H](O)[C@]1(C)O [Azi, azithromycin]",MIC50,,0.125 µg/mL
same,MIC,"strain CDC1 (GCREF2012 016), read-out: MIC",0.25 µg/mL
same,MIC,"strain CDC2 (GCREF2012 045), read-out: MIC",0.5 µg/mL
same,MIC,strain CDC3 (GCREF2013 013),0.125 µg/mL
same,MIC,strain CDC4 (GCREF2013 030),0.125 µg/mL
same,MIC,"strain CDC5 (GCREF2012 001), read-out: MIC",0.5 µg/mL
same,MIC,"strain CDC6 (GCREF2012 002), read-out: MIC",0.5 µg/mL
same,MIC,strain CDC8 (GCREF2012 004),0.125 µg/mL
same,MIC,strain CDC9 (GCREF2012 005),0.125 µg/mL
same,MIC,"strain CDC10 (GCREF2012 006), read-out: MIC",0.5 µg/mL
same,MIC,"strain CDC11 (GCREF2012 007), read-out: MIC",0.25 µg/mL
same,MIC,strain CDC12 (GCREF2012 008),0.125 µg/mL
same,MIC,strain CDC13 (GCREF2012 009),0.125 µg/mL
same,MIC,strain CDC14 (GCREF2012 010),0.125 µg/mL
same,MIC,"strain CDC15 (GCREF2012 011), read-out: MIC",4 µg/mL
same,MIC,"strain CDC16 (GCREF2012 012), read-out: MIC",0.25 µg/mL
same,MIC,"strain CDC18 (GCREF2012 014), read-out: MIC",0.5 µg/mL
same,MIC,"strain CDC19 (GCREF2012 015), read-out: MIC",8 µg/mL
same,MIC,"strain CDC20 (GCREF2012 017), read-out: MIC",> 16 µg/mL
same,MIC,strain CDC21 (GCREF2012 018),0.125 µg/mL
same,MIC,"strain CDC22 (GCREF2012 019), read-out: MIC",0.5 µg/mL
same,MIC,strain CDC23 (GCREF2012 020),0.125 µg/mL
same,MIC,"strain CDC24 (GCREF2012 021), read-out: MIC",0.25 µg/mL
same,MIC,strain CDC25 (GCREF2012 022),0.125 µg/mL
same,MIC,"strain CDC26 (GCREF2012 023), read-out: MIC",0.5 µg/mL
same,MIC,"strain CDC27 (GCREF2012 024), read-out: MIC",0.25 µg/mL
same,MIC,"strain CDC28 (GCREF2012 025), read-out: MIC",0.25 µg/mL
same,MIC,"strain CDC29 (GCREF2012 026), read-out: MIC",0.5 µg/mL
same,MIC,"strain CDC30 (GCREF2012 027), read-out: MIC",0.25 µg/mL
same,MIC,"strain CDC31 (GCREF2012 028), read-out: MIC",0.5 µg/mL
same,MIC,strain CDC32 (GCREF2012 029),0.125 µg/mL
same,MIC,strain CDC33 (GCREF2012 030),0.125 µg/mL
same,MIC,strain CDC34 (GCREF2012 031),0.125 µg/mL
same,MIC,"strain CDC35 (GCREF2012 032), read-out: MIC",0.25 µg/mL
same,MIC,"strain CDC36 (GCREF2012 033), read-out: MIC",4 µg/mL
same,MIC,"strain CDC37 (GCREF2012 034), read-out: MIC",0.25 µg/mL
same,MIC,"strain CDC38 (GCREF2012 035), read-out: MIC",0.25 µg/mL
same,MIC,"strain CDC39 (GCREF2012 036), read-out: MIC",0.25 µg/mL
same,MIC,"strain CDC40 (GCREF2012 037), read-out: MIC",0.25 µg/mL
same,MIC,"strain CDC41 (GCREF2012 038), read-out: MIC",0.25 µg/mL
same,MIC,"strain CDC42 (GCREF2012 039), read-out: MIC",0.25 µg/mL
same,MIC,"strain CDC43 (GCREF2012 040), read-out: MIC",0.25 µg/mL
same,MIC,"strain CDC45 (GCREF2012 042), read-out: MIC",0.5 µg/mL
same,MIC,strain CDC46 (GCREF2012 043),0.125 µg/mL
same,MIC,"strain CDC47 (GCREF2012 044), read-out: MIC",0.5 µg/mL
same,MIC,"strain CDC48 (GCREF2012 046), read-out: MIC",0.25 µg/mL
same,MIC,"strain CDC49 (GCREF2012 047), read-out: MIC",0.5 µg/mL
same,MIC,"strain CDC50 (GCREF2012 048), read-out: MIC",0.25 µg/mL
same,MIC,strain CDC51 (GCREF2012 049),0.125 µg/mL
same,MIC,strain CDC52 (GCREF2012 050),0.125 µg/mL
same,MIC,strain CDC53 (GCREF2012 051),0.125 µg/mL
same,MIC,"strain CDC54 (GCREF2012 052), read-out: MIC",0.016 µg/mL
same,MIC,strain CDC55 (GCREF2013 001),0.125 µg/mL
same,MIC,strain CDC56 (GCREF2013 002),0.125 µg/mL
same,MIC,strain CDC57 (GCREF2013 003),0.125 µg/mL
same,MIC,strain CDC58 (GCREF2013 004),0.125 µg/mL
same,MIC,strain CDC59 (GCREF2013 044),0.125 µg/mL
same,MIC,strain CDC60 (GCREF2013 005),0.125 µg/mL
same,MIC,"strain CDC61 (GCREF2013 006), read-out: MIC",0.25 µg/mL
same,MIC,strain CDC62 (GCREF2013 007),0.125 µg/mL
same,MIC,"strain CDC63 (GCREF2013 008), read-out: MIC",0.016 µg/mL
same,MIC,strain CDC64 (GCREF2013 009),0.125 µg/mL
same,MIC,strain CDC65 (GCREF2013 010),0.125 µg/mL
same,MIC,"strain CDC66 (GCREF2013 011), read-out: MIC",4 µg/mL
same,MIC,strain CDC67 (GCREF2013 014),0.125 µg/mL
same,MIC,strain CDC68 (GCREF2013 016),0.125 µg/mL
same,MIC,strain CDC69 (GCREF2013 017),0.125 µg/mL
same,MIC,"strain CDC70 (GCREF2013 018), read-out: MIC",4 µg/mL
same,MIC,strain CDC71 (GCREF2013 019),0.125 µg/mL
same,MIC,strain CDC72 (GCREF2013 020),0.125 µg/mL
same,MIC,strain CDC73 (GCREF2013 021),0.125 µg/mL
same,MIC,strain CDC74 (GCREF2013 022),0.125 µg/mL
same,MIC,"strain CDC75 (GCREF2013 023), read-out: MIC",0.5 µg/mL
same,MIC,strain CDC76 (GCREF2013 024),0.125 µg/mL
same,MIC,"strain CDC77 (GCREF2013 025), read-out: MIC",4 µg/mL
same,MIC,"strain CDC78 (GCREF2013 026), read-out: MIC",0.031 µg/mL
same,MIC,strain CDC79 (GCREF2013 027),0.125 µg/mL
same,MIC,"strain CDC80 (GCREF2013 028), read-out: MIC",8 µg/mL
same,MIC,strain CDC81 (GCREF2013 029),0.125 µg/mL
same,MIC,"strain CDC82 (GCREF2013 031), read-out: MIC",2 µg/mL
same,MIC,strain CDC83 (GCREF2013 032),0.125 µg/mL
same,MIC,strain CDC84 (GCREF2013 033),0.125 µg/mL
same,MIC,strain CDC86 (GCREF2013 035),0.125 µg/mL
same,MIC,strain CDC87 (GCREF2013 036),0.125 µg/mL
same,MIC,"strain CDC88 (GCREF2013 037), read-out: MIC",2 µg/mL
same,MIC,"strain CDC89 (GCREF2013 038), read-out: MIC",2 µg/mL
same,MIC,strain CDC90 (GCREF2013 039),0.125 µg/mL
same,MIC,strain CDC91 (GCREF2013 040),0.125 µg/mL
same,MIC,strain CDC92 (GCREF2013 041),0.125 µg/mL
same,MIC,strain CDC93 (GCREF2013 042),0.125 µg/mL
same,MIC,"strain CDC94 (GCREF2013 043), read-out: MIC",2 µg/mL
same,MIC,strain CDC95 (GCREF2013 045),0.125 µg/mL
same,MIC,strain CDC96 (GCREF2013 046),0.125 µg/mL
same,MIC,strain CDC97 (GCREF2013 047),0.125 µg/mL
same,MIC,"strain CDC98 (GCREF2013 048), read-out: MIC",2 µg/mL
same,MIC,"strain CDC99 (GCREF2013 012), read-out: MIC",4 µg/mL
same,MIC,strain CDC100 (GCREF2013 015),0.125 µg/mL
same,MIC90,"96 clinical isolates, read-out: MIC90",2 µg/mL
